Assays:
Type in all cases: functional
IGROV-1 = experiment: Compound was evaluated for the growth inhibition of […] ovarian cell lines; details: Homo sapiens
OVCAR-5 = experiment: Compound was evaluated for the growth inhibition of OVCAR-5 ovarian cell lines; details: Homo sapiens
Homo sapiens [1] = species on record: Homo sapiens; experiment: Compound was evaluated for the growth inhibition of cell cultures derived from human prostate cancer tumors
leukaemia cell line = experiment: Compound was evaluated for the growth inhibition of cell cultures derived from human leukemia tumors
[2] = system: Panel CNS (Carcinoma cell lines); experiment: Compound was evaluated for the growth inhibition of cell cultures derived from human Cns cancer tumors
Ovarian cancer cell line = experiment: (§1) Compound was evaluated for the growth inhibition of cell cultures derived from human ovarian cancer tumors
[3] = system: Panel colon (Carcinoma cell lines); experiment: Compound was evaluated for the growth inhibition of cell cultures derived from human colon cancer tumors
[4] = system: Panel breast (Carcinoma cell lines); experiment: (§2) Compound was evaluated for the growth inhibition of cell cultures derived from human breast cancer tumors
Melanoma tumor cell line = experiment: Compound was evaluated for the growth inhibition of cell cultures derived from human melanoma tumors
Tumor Cell line [5] = experiment: Mean values over all human tumor cell lines were determined
[6] = system: Panel renal (Carcinoma cell lines); experiment: Compound was evaluated for the growth inhibition of cell cultures derived from human renal cancer tumors
[7] = system: Lung cancer tumor cell line; experiment: Compound was evaluated for the growth inhibition of cell cultures derived from human non small cell lung cancer tumors
Homo sapiens [8] = species on record: Homo sapiens; experiment: as §1
[9] = as §2
Tumor Cell line [10] = experiment: Compound was evaluated for the growth inhibition against panel of human tumor cell lines
Tumor Cell line [11] = experiment: Compound was evaluated for the growth inhibition of a panel of human tumor cell lines

Row | Structure (SMILES) | GI50 (IGROV-1) [µM] | GI50 (OVCAR-5) [µM] | GI50 (Homo sapiens [1]) [µM] | GI50 (leukaemia cell line) [µM] | GI50 [2] [µM] | GI50 (Ovarian cancer cell line) [µM] | GI50 [3] [µM] | GI50 [4] [µM] | GI50 (Melanoma tumor cell line) [µM] | GI50 (Tumor Cell line [5]) [µM] | GI50 [6] [µM] | GI50 [7] [µM] | GI50 (Homo sapiens [8]) [µM] | GI50 [9] [µM] | GI50 (Tumor Cell line [10]) [µM] | GI50 (Tumor Cell line [11]) [µM]
1 | Cc1c(C)c(S(=O)(=O)N(CCCCCCN2C(=O)c3ccccc3C2=O)OCCCN2C(=O)c3ccccc3C2=O)c(C)c2c1OC(C)(C)CC2 | 3.27 | 52.5 | – | – | – | – | – | – | – | – | – | – | – | – | – | –
2 | Cc1c(C)c(S(=O)(=O)N(CCCN2C(=O)c3ccccc3C2=O)OCCCN2C(=O)c3ccccc3C2=O)c(C)c2c1OC(C)(C)CC2 | 3.27 | 52.5 | – | – | – | – | – | – | – | – | – | – | – | – | – | –
3 | Cc1c(C)c(S(=O)(=O)N(CCCCN)OCCCN)c(C)c2c1OC(C)(C)CC2 | – | – | 14.5 | 26.8 | 18 | 13.5 | 20.3 | 28.4 | 19.1 | 19.6 | 20.9 | 15.3 | – | – | – | –
4 | Cc1cc(C)c(S(=O)(=O)N(CCCCCCN)OCCCN)c(C)c1 | – | – | 15.4 | 19.5 | 16.5 | 18 | 16.7 | 23 | 15.7 | 18.3 | 17.5 | 22.4 | – | – | – | –
5 | Cc1c(C)c(S(=O)(=O)N(CCCN)OCCCN)c(C)c2c1OC(C)(C)CC2 | – | – | 14 | 13 | 12.9 | 12.6 | 13.8 | 15.8 | 14.8 | 14 | 14.7 | 14.2 | – | – | – | –
6 | Cc1cc(C)c(S(=O)(=O)N(CCCCCN)OCCCN)c(C)c1 | – | – | 15.7 | 15.3 | 16.9 | 17.9 | 16.2 | 20.2 | 18.2 | 15.2 | 16.1 | 16.9 | – | – | – | –
7 | Cc1c(C)c(S(=O)(=O)N(CCCCCON)OCCCN)c(C)c2c1OC(C)(C)CC2 | – | – | 10.6 | 6.3 | 14.9 | – | 12.8 | – | 13.7 | 12.5 | 14.3 | 13.5 | 12.4 | 13.8 | – | –
8 | Cc1c(C)c(S(=O)(=O)N(CCCCCN)OCCCN)c(C)c2c1OC(C)(C)CC2 | – | – | 16.1 | 3.9 | 9.6 | 12.7 | 9.8 | 10 | 10.9 | 11.2 | 16.5 | 11.5 | – | – | – | –
9 | NCCCNOCCCN | – | – | – | – | – | – | – | – | – | – | – | – | – | – | > 100 | –
10 | Cc1c(C)c(S(=O)(=O)N(CCCCCCN)OCCCN)c(C)c2c1OC(C)(C)CC2 | – | – | 16.3 | 4.1 | 5.6 | 4.7 | 7.2 | 10.2 | 10.7 | 8.5 | 11.3 | 6.3 | – | – | – | –
11 | Cc1c(C)c(S(=O)(=O)N(CCCCCN2C(=O)c3ccccc3C2=O)OCCCN2C(=O)c3ccccc3C2=O)c(C)c2c1OC(C)(C)CC2 | 3.27 | 52.5 | – | – | – | – | – | – | – | – | – | – | – | – | – | –
12 | Cc1c(C)c(S(=O)(=O)N(CCCCN2C(=O)c3ccccc3C2=O)OCCCN2C(=O)c3ccccc3C2=O)c(C)c2c1OC(C)(C)CC2 | 3.27 | 52.5 | – | – | – | – | – | – | – | – | – | – | – | – | – | –
13 | Cc1cc(C)c(S(=O)(=O)N(CCCCN)OCCCN)c(C)c1 | – | – | 14.5 | 11.8 | 18.1 | – | 13.3 | 17.8 | 18.1 | 16.4 | 18.2 | 18.5 | 17.2 | – | – | –
14 | Cc1cc(C)c(S(=O)(=O)N(CCCN)OCCCN)c(C)c1 | – | – | – | – | – | – | – | – | – | – | – | – | – | – | – | > 100
